Data reported in patent US4558144A, “Volatile metal complexes” (Corning Glass Works, priority 1984, dated 1985).

Legend:
[1] = Thermogravimetric analysis (TGA), volatility; assay type: physicochemical; details: for volatilization behavior / decomposition in TGA / T1/2 (temperature at which one-half of the sample has been evaporated): 20 mg sample, 10° C./min, argon; for T1/2 (temperature at which one-half of the sample has been evaporated): TGA; for T1/2 volatility: Table III, comparative data
Method: A thermogravimetric analysis (TGA) of the product was carried out on a 20 mg sample of the material, heated at a rate of 10° C./min under an argon atmosphere. A thermogravimetric curve resulting from such a study, identified as "TGA-Mg(hfa)2.1,2-DME", is reproduced in FIG. 1 of the drawing.

[2] = Vapor pressure; assay type: physicochemical
[3] = Thermal stability, heating in evacuated/sealed ampoules at 200° C. for 24 hours; assay type: physicochemical; details: ampoule, compared with corresponding THF adduct
Method: The thermal stability of Mg(hfa)2.1,2-DME is evidenced not only by the TGA data set forth in FIG. 1, but also by investigations as to the extent and nature of the decomposition of Mg(hfa)2.1,2-DME after prolonged heating at temperatures in the 100°-200° C. range.
As in the case of the magnesium complex, the thermal stability of Zn(hfa)2.1,2-DME is evidenced not only by the observed rapid and complete TGA volatilization behavior shown in FIG. 2, but also by measuring residual gas pressure after heating a sample of the material in a sealed ampoule at 200° C. for 24 hours.

[4] = at 200° C.; EP No. 0103446; cited from earlier work

Row | Compound | volatilization behavior / decomposition in TGA ([1]; in words) | T1/2 (temperature at which one-half of the sample has been evaporated) [1] | T1/2 volatility [1] | residual pressure after heating [3] | sample discoloration after heating [3] | other results
1 | COCCOC.O=C(C=C([O-])C(F)(F)F)C(F)(F)F.O=C(C=C([O-])C(F)(F)F)C(F)(F)F.[Mg+2] [Mg(hfa)2.1,2-DME] | rapid and complete volatilization of the complex over a narrow temperature range, indicating the absence of detectable decomposition | about 170 °C | 170 °C | lower residual pressure | less discoloration | vapor pressure ([2]; at about 120° C.): 10 mm (Hg)
2 | O=C(C=C([O-])C(F)(F)F)C(F)(F)F.O=C(C=C([O-])C(F)(F)F)C(F)(F)F.[Mg+2].c1cnc2c(c1)ccc1cccnc12 [Mg(hfa)2.1,10-phenanthroline, reference compound] |  |  | 295 °C |  |  | 
3 | C1CCOC1.C1CCOC1.O=C(C=C([O-])C(F)(F)F)C(F)(F)F.O=C(C=C([O-])C(F)(F)F)C(F)(F)F.[Mg+2] [Mg(hfa)2.2THF, reference compound] |  | 180 °C |  |  |  | volatilization without decomposition [4]: can be volatilized without decomposition
4 | COCCOC.O=C(C=C([O-])C(F)(F)F)C(F)(F)F.O=C(C=C([O-])C(F)(F)F)C(F)(F)F.[Zn+2] [Zn(hfa)2.1,2-DME] | rapid and complete vaporization over a narrow range of temperatures, indicating no detectable thermal decomposition | 162 °C | 162 °C | lower residual pressure | less discoloration | T1/2 temperature compared with Zn(hfa)2.2THF ([1]; same TGA conditions, in words): only slightly higher than the T1/2 temperature of Zn(hfa)2.2THF; vapor pressure ([2]; at 125° C.): about 16 mm (Hg)
5 | O=C(C=C([O-])C(F)(F)F)C(F)(F)F.O=C(C=C([O-])C(F)(F)F)C(F)(F)F.[Zn+2].c1cnc2c(c1)ccc1cccnc12 [Zn(hfa)2.1,10-phenanthroline, reference compound] |  |  | 310 °C |  |  | 
6 | O=C(C=C([O-])C(F)(F)F)C(F)(F)F.O=C(C=C([O-])C(F)(F)F)C(F)(F)F.[Zn+2].c1ccc(-c2ccccn2)nc1 [Zn(hfa)2.2,2'-bipyridine, reference compound] |  |  | 295 °C |  |  | 
